Experimental findings from patent US7855200B2, “Method for treatment of gastric ulcers and ulcers induced by aspirin” (Council of Scientific and Industrial Research, priority 2006, dated 2010) are described below.

Common to all, as to assay type: in vivo, albino rats
Experiment [1] deals with gastric ulceration in cold restraint rats. As to the kind of experiment: Cold restraint (stress) induced ulcers. More on the design: Ulcer index Mean(SE): scale not given here. The note with it: rats, 4° C. for 2 hours. An outline of the steps: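 Albino rats, fasted 48 h with free water, dosed orally with compound at 25 mg/kg or at 50, 25, 15, 10 and 5 mg/kg in 1% Tween 80 vehicle. Water removed 1 h before restraint at 4° C for 2 h. Sacrificed 2 h after stress; stomachs opened along greater curvature and scored as mean ulcer index.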

The test system of experiment [2] is acetyl salicylic acid induced gastric lesions. The experiment is described as follows: Acetyl salicylic acid (aspirin) induced gastric ulcer. On the set-up: Ulcer index Mean(SE): scale not given here. The note with it: rats, aspirin 200 mg/kg. An outline of the steps: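 Rats in groups of 6 were dosed orally once a day for five days with test compounds suspended in 1% Tween 80. A 1% Tween 80 control group and a ranitidine 50 mg/kg group were included. Aspirin at 200 mg/kg was given orally 30 min after each dose. After a 24 hour fast, the rats were killed by cervical dislocation. Stomachs were opened along the greater curvature, rinsed with lukewarm saline, examined under a dissecting microscope and scored for ulcer index.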

Another experiment has as its system Pylorus ligated rats. The experiment is described as follows: Pylorus ligated ulcers. The settings on record: 4 hours after pylorus ligation. An outline of the steps:
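Albino rats, fasted 48 h, dosed with test compound (25 mg/kg, or 50, 25, 15, 10 and 5 mg/kg) or ranitidine 50 mg/kg in 1% Tween 80 vehicle. Pylorus ligated under ether 1 h post-dose. Gastric contents collected 4 h later, centrifuged, and total acid titrated with 0.01N NaOH.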

The subject of experiment [3] is ethanol induced gastric ulcers. The experiment is described as follows: Ethanol induced ulcers. The settings on record: rats, ethanol challenge; for Acidity Total mEg / Gastric content / pH: 4 hours after pylorus ligation. An outline of the steps:
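Rats in groups of 6, fasted 48 h, given Tween 80 (1%) vehicle, reference drugs, or test compounds at 25 mg/kg; lesions induced 1 h after ethanol challenge. Pylorus ligated under ether; 4 h later gastric contents centrifuged and total acid titrated with 0.01N NaOH.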

Experiment [4] deals with gastric ulcers induced by aspirin, ethanol, stress and pylorus ligation. The experiment is described as follows: Antigastric ulcer screening by four different models (statements in words). The settings on record: summary statement. The source says:
The compounds taken under study for antigastric ulcer screening by four different models were selected using experimental albino rats: • 1. Aspirin induced gastric ulceration • 2. Pylorus ligated gastric ulceration • 3. Ethanol induced gastric ulceration • 4. Stress induced gastric ulceration
The commercially available drug ranitidine (sigma), Omeprazole (sigma) and sucralfate (Merck) were used as reference standard in experimental models. The Tween-80 (SD fine chemicals) was used as vehicle for the administration of the drug, which is used as control.

Setting [5] is: 25 mg/kg per orally daily for five days.

Turning to `COC(=O)C1OC(Oc2ccc3c(=O)cc(-c4ccccc4)oc3c2)C(O)C(O)C1O` (stereo not shown) [CGL, 3,4,5-trihydroxy-6-(4-oxo-2-phenyl-4-H-chromen-7-yoloxy) tetrahydro-pyran-2-carboxylicacid methyl ester], in experiment [1] (25 mg/kg per orally), the Inhibition % is reported as 50.22% and the “Ulcer index Mean(SE)” value is given as 20.00. For the same compound, in experiment [2] (setting [5]), the Inhibition % came out at 70.46% and the “Ulcer index Mean(SE)” value was found to be 13.33. In the experiment on Pylorus ligated rats (25 mg/kg), the “Acidity Total mEg” value is given as 40.00 (±1.15) m Eg, the Gastric content is on record as 4.83 (±0.44), the Inhibition % is reported as 60.17% and the “Ulcer index Mean(SE)” value is 19.96 (±6.66). Moreover, in the experiment with Pylorus ligated rats (25 mg/kg), the pH is given as 3.08 (±0.22). In experiment [3] (25 mg/kg), the Inhibition % is reported as 62.50%, the “Ulcer index Mean(SE)” value is listed as 25.00 (±2.88), the “Acidity Total mEg” value is on record as 39.00 (±1.52) mEg and the Gastric content is given as 4.60 (±0.20). Moreover, the pH in experiment [3] (25 mg/kg) is listed as 3.91 (±0.21). In addition, in experiment [4], the “antiulcer activity (in words)” value was “very good activity”.
Broadly, the inhibition is the change of the read-out against control, counted positive when it falls. `COc1c(O)cc2oc(-c3ccccc3)cc(=O)c2c1O` [Oroxylin A, 5,7-Dihydroxy-6-methoxy-2-phenylchromen-4-one]: the inhibition at 25 mg/kg in experiment [1] (Rattus norvegicus, po, 25 mg/kg per orally) was 5.26%; in experiment [2] (Rattus norvegicus, po, 120 h, 25 mg/kg per orally daily for five days), 5.81%; with Pylorus ligated rats (Rattus norvegicus, 25 mg/kg), 0%; in experiment [3] (Rattus norvegicus, 25 mg/kg) it was 27.5%. Moreover, the “Ulcer index Mean(SE)” value is given as 38.57 in experiment [1] (25 mg/kg per orally), 42.50 in experiment [2] (setting [5]), 50.80 (±2.00) in the experiment with Pylorus ligated rats (25 mg/kg) and 48.33 (±3.33) in experiment [3] (25 mg/kg). The “Acidity Total mEg” value in the experiment with Pylorus ligated rats (25 mg/kg) is recorded as 55.24 (±2.40) m Eg; in experiment [3] (25 mg/kg), 48.24 (±2.84) mEg. Also, the Gastric content in the experiment on Pylorus ligated rats (25 mg/kg) is reported as 2.30 (±0.42); in experiment [3] (25 mg/kg), 4.0 (±0.45). In addition, the pH is 2.74 (±0.24) in the experiment with Pylorus ligated rats (25 mg/kg) and 3.19 (±0.73) in experiment [3] (25 mg/kg).
On to `CNC(=C[N+](=O)[O-])NCCSCc1ccc(CN(C)C)o1` [Ranitidine, ranitidine, reference compound], for which the inhibition at 50 mg/kg in experiment [1] (Rattus norvegicus, po, 50 mg/kg per orally) stood at 78.8%; in experiment [2] (Rattus norvegicus, po, 120 h, 50 mg/kg per orally daily for five days), 74.2%; in the experiment on Pylorus ligated rats (Rattus norvegicus, 50 mg/kg) it was 78.4%; in experiment [3] (Rattus norvegicus, 50 mg/kg) it was 61.3%. In addition, the “Ulcer index Mean(SE)” value in experiment [1] (50 mg/kg per orally) was 08.62; in experiment [2] (50 mg/kg per orally daily for five days) it was 11.66; with Pylorus ligated rats (50 mg/kg), 10.83 (±3.21); in experiment [3] (50 mg/kg), 25.83 (±2.22). In addition, the “Acidity Total mEg” value in the experiment with Pylorus ligated rats (50 mg/kg) is given as 31.8 (±1.91) m Eg; in experiment [3] (50 mg/kg), 26.74 (±1.54) mEg. In addition, the values for the Gastric content (with Pylorus ligated rats (50 mg/kg); in experiment [3] (50 mg/kg)) were 1.82 (±0.44) and 5.0 (±0.48), respectively. Also, the pH in the experiment with Pylorus ligated rats (50 mg/kg) was 4.75 (±0.22); in experiment [3] (50 mg/kg), 4.96 (±0.13).
